In ChEMBL document CHEMBL1140990, “Evaluation of alpha,beta-unsaturated ketone-based probes for papain-family cysteine proteases” (Bioorg Med Chem, 2009) one finds Activity data, which are given here for three compounds.

For test [1], the target named is Cathepsin B (Homo sapiens) (UniProt P07858). Briefly: Inhibition of human recombinant cathepsin B.
The target of test [2] is Procathepsin L (Homo sapiens) (UniProt P07711). The test can be described thus: Inhibition of human recombinant cathepsin L.
Procathepsin L (Homo sapiens), sequence (P07711 114-333 limits assumed): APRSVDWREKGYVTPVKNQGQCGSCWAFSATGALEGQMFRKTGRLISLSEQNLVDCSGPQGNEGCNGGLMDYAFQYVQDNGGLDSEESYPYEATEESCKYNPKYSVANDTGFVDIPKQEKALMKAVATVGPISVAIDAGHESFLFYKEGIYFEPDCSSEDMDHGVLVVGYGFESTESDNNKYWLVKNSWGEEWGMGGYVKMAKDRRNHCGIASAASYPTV
Test [3] concerns the target Cathepsin B (Mus musculus) (UniProt P10605). Briefly: Binding affinity to cathepsin B in mouse spleen crude extracts. In kind it is tissue-based.
Test [4] addresses T1, Procathepsin L (Mus musculus) (UniProt P06797).
T1 sequence (whole entry): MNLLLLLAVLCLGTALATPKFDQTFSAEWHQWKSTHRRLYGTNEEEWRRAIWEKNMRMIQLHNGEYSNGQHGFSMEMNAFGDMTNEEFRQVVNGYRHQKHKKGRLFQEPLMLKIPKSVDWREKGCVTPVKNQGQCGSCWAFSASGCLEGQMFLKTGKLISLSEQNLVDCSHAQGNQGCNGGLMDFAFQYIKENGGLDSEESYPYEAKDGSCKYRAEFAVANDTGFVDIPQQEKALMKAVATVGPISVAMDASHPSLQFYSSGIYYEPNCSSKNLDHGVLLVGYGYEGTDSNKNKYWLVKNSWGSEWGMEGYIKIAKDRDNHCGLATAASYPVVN
The test can be described thus: Binding affinity to cathepsin L in wild type mouse NIH/3T3 cells. Type of test: cell-based. As to conditions: NIH3T3.

The target in test [5] is Cathepsin B (Mus musculus) (UniProt P10605). The test can be described thus: Binding affinity to cathepsin B in wild type mouse NIH/3T3 cells. In kind it is cell-based. As to conditions: NIH3T3.
Cathepsin B (Mus musculus), sequence (P10605 80-333 limits assumed): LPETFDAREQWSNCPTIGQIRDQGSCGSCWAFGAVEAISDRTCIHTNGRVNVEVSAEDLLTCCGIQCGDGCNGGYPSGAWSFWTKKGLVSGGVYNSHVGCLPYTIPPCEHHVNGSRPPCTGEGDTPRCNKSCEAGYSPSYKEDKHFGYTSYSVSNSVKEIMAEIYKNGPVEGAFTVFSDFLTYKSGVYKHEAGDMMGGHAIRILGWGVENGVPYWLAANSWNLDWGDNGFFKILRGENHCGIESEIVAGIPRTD
Test [6] has the same target. The test can be described thus: Binding affinity to cathepsin B in mouse spleen crude extracts at 500 nM. Type of test: tissue-based.
The target in test [7] is Cathepsin B (Homo sapiens) (UniProt P07858). Briefly: Binding affinity to cathepsin B in human MDA-MB-231 cell lysates. Type of test: cell-free.

Molecules are shown by their SMILES. Activity calls are given as the source filed them. The calls are words filed in the database; no cut-off is given here.

As for `CC(=O)/C=C/[C@H](C)NC(=O)[C@H](Cc1ccccc1)NC(=O)OCc1ccccc1`, the Activity in test [1] is 36700 M⁻¹ s⁻¹; in test [2] it was 1.63e+06 M⁻¹ s⁻¹.
For `COc1ccc(-c2ccc3n2[B-](F)(F)[N+]2=C(C)C(CCC(=O)NCCCCCC(=O)N[C@@H](Cc4ccccc4)C(=O)N[C@@H](C)/C=C/C(C)=O)=C(C)C2=C3)cc1`, the outcome in test [3], in test [4], in test [5] and in test [6] was Active.
As to `CC(=O)/C=C/[C@H](C)NC(=O)[C@H](Cc1ccccc1)NC(=O)CCOCCOCCOCCOCCNC(=O)CCCC[C@H]1SC[C@H]2NC(=O)N[C@H]21`, the result in test [7] and in test [6] was Active.
